# Experimental data published in article PMC10590419, “Structural and mechanistic insights into the inhibition of respiratory syncytial virus polymerase by a non-nucleoside inhibitor” (Communications Biology, 2023).
# pIC50: −log10 of the molar value. Where “and” joins values, the source holds several entries; their conditions need not be identical. Equal entries are not always repeated. Where two headings read alike, the source gives them in different places.
# How the values were obtained:
# RSV L+P complex = RSV L+P complex (Human respiratory syncytial virus A, UniProt P28887); test: Surface plasmon resonance assay; assay type: binding, Human RSV (strain A2); settings: SPR, 37°C
# RSV L+P RdRp = RSV L+P RdRp (Human respiratory syncytial virus A, UniProt P28887); test: Biotinylated primer extension Flashplate assay, recombinant RSV L+P; assay type: biochemical, Human RSV (strain A2)
# Method: RNA polymerase reaction samples consisted of recombinant RSV L-P polymerase (3 nM) in a buffer containing Tris pH 7.5 (20 mM), KCl (10 mM), dithiothreitol (2 mM), Triton (0.01%), DMSO (10% v/v) with compound at appropriate dilution (10 points 1:5-fold serial dilution starting at 1 µM), and MgCl2 (6 mM). Reactions were started at 30 °C by adding an oligonucleotide template sequence derived from the RSV leader promoter (5’-[…]-3’, 0.2 μM) together with a biotinylated primer (5’-bi-ACGC, 4 μM) mixed with GTP (10 µM), ATP (10 µM) and [α-^33P]CTP (0.025 µM, 3000 Ci/mmol) in a final volume of 10 μL. Reactions were stopped after 120 min by the addition of 90 µl EDTA (0.1 M). Samples were transferred to Flashplates and left 1 h at room temperature for incubation before being washed twice with 0.1% Tween 20, sealed (Topseal) and read on a Wallac MicroBeta TriLux Liquid Scintillation Counter.
# RSV L+P RdRp, sequence (P03421 whole entry): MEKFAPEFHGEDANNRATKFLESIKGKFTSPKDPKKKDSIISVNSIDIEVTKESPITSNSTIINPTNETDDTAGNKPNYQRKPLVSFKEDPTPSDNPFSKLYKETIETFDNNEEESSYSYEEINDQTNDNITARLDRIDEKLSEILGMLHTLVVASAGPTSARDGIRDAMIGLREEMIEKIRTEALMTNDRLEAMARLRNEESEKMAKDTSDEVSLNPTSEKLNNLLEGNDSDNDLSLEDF
# RSV L+P RdRp, sequence (P28887 whole entry): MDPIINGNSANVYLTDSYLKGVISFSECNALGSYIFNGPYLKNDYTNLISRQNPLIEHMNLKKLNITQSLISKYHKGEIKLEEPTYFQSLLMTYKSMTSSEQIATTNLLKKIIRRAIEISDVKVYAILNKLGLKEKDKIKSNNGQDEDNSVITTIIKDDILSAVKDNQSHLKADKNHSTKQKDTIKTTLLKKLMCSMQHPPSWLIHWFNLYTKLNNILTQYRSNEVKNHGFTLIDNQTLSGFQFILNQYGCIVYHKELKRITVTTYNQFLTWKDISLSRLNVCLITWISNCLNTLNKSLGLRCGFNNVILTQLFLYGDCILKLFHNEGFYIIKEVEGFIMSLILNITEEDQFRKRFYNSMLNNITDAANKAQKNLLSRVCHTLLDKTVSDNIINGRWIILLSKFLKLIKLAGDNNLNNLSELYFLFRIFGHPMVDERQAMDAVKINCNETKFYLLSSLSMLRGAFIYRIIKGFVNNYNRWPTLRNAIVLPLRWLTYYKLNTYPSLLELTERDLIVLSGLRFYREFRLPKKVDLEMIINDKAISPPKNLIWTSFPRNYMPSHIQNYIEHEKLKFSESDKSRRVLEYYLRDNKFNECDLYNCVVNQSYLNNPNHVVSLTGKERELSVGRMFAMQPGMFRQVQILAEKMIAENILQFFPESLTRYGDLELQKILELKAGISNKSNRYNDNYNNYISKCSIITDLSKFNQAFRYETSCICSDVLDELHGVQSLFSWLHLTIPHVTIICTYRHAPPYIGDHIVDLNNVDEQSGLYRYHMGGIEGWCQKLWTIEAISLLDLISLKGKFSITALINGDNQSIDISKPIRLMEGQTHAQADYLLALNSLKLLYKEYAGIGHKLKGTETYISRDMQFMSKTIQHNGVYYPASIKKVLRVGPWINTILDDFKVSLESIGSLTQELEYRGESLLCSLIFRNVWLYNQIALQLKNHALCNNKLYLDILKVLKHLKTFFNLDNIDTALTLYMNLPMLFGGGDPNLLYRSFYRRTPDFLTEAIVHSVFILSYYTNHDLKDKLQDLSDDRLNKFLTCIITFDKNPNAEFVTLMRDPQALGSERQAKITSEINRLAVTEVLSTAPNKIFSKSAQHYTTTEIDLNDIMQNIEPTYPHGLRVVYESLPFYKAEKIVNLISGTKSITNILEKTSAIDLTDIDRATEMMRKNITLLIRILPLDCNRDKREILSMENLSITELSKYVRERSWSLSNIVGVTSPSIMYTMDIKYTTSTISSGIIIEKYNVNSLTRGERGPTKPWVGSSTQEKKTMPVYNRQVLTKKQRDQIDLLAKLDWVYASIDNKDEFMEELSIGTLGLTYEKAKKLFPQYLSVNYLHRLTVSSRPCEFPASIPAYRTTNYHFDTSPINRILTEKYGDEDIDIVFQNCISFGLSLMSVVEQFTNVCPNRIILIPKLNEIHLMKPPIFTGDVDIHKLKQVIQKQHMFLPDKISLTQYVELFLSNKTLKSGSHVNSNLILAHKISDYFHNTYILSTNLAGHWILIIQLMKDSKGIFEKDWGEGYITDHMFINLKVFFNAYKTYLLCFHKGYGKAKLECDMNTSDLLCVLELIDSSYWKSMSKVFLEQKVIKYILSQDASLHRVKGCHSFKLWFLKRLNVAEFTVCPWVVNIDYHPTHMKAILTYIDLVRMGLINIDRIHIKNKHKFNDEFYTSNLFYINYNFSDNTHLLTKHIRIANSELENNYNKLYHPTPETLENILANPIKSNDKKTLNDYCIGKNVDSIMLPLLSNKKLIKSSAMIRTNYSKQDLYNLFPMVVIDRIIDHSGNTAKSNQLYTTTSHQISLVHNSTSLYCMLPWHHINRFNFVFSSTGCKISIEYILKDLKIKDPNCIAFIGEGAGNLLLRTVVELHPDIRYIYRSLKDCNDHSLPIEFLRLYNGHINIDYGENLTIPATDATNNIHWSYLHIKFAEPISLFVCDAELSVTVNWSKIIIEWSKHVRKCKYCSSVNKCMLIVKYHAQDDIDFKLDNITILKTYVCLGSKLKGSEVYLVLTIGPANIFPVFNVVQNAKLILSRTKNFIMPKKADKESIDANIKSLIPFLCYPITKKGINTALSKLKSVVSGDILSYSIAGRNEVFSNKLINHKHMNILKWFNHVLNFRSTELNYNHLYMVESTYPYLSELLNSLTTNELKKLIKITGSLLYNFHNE
# RSV L+P complex, sequence (P03421 whole entry): as the sequence (P03421 whole entry) above
# RSV L+P complex, sequence (P28887 whole entry): as the sequence (P28887 whole entry) above
smiles,measurement,setting,value
COc1cc(C(=O)NC[C@](O)(c2cc(C(C)(C)O)c(F)c(-c3ccc(F)cc3)n2)C(F)(F)F)cc2cc(C)nnc12 [JNJ-8003],off-rate,RSV L+P complex,0.0000181 s⁻¹
same,on-rate,RSV L+P complex,2.16e+06 M⁻¹ s⁻¹
same,pIC50,"RSV L+P RdRp; RSV L+P RdRp primer extension, n 18, read-out: Median IC50",9.14
same,pIC50,"RSV L+P RdRp; RdRp activity, Flashplate (Fig. 1c), read-out: IC50",9.17
same,inhibition at 0.00032 µM,"RSV L+P RdRp; [JNJ-8003] 0.00032 uM, replicates 1-4",28.6%
same,% inhibition,"RSV L+P RdRp; [JNJ-8003] 0.00032 uM, replicates 1-4, 0.00032 µM",26.2934% and 27.7635% and 40.6870%
same,inhibition at 0.0016 µM,"RSV L+P RdRp; [JNJ-8003] 0.0016 uM, replicates 1-4",55.8%
same,% inhibition,"RSV L+P RdRp; [JNJ-8003] 0.0016 uM, replicates 1-4, 0.0016 µM",60.6805% and 64.1654% and 73.5323%
same,inhibition at 0.008 µM,"RSV L+P RdRp; [JNJ-8003] 0.008 uM, replicates 1-4",81.4%
same,% inhibition,"RSV L+P RdRp; [JNJ-8003] 0.008 uM, replicates 1-4, 0.008 µM",89.6905% and 92.3440% and 94.9354%
same,inhibition at 0.04 µM,"RSV L+P RdRp; [JNJ-8003] 0.04 uM, replicates 1-4",93%
same,% inhibition,"RSV L+P RdRp; [JNJ-8003] 0.04 uM, replicates 1-4, 0.04 µM",96.5839% and 97.2066% and 98.2976%
same,inhibition at 0.2 µM,"RSV L+P RdRp; [JNJ-8003] 0.2 uM, replicates 1-4",95.2%
same,% inhibition,"RSV L+P RdRp; [JNJ-8003] 0.2 uM, replicates 1-4, 0.2 µM",96.5743% and 98.0014% and 97.9026%
